# Measured values reported in patent US9708331B2, “Metabotrophic glutamate receptor 5 modulators and methods of use thereof” (SUNOVION PHARMACEUTICALS INC., priority 2011, dated 2017).
# How the values were obtained:
# mGluR5 [1] = molecular target: T1, mGluR5 (Homo sapiens, UniProt P41594); test: mGluR5 PAM EC50 (positive allosteric modulator potency); format: cell-based
# mGluR5 [2] = molecular target: T1, mGluR5; test: mGluR5 fold shift at a fixed compound concentration; format: cell-based
# T1 sequence (P41594 21-1212): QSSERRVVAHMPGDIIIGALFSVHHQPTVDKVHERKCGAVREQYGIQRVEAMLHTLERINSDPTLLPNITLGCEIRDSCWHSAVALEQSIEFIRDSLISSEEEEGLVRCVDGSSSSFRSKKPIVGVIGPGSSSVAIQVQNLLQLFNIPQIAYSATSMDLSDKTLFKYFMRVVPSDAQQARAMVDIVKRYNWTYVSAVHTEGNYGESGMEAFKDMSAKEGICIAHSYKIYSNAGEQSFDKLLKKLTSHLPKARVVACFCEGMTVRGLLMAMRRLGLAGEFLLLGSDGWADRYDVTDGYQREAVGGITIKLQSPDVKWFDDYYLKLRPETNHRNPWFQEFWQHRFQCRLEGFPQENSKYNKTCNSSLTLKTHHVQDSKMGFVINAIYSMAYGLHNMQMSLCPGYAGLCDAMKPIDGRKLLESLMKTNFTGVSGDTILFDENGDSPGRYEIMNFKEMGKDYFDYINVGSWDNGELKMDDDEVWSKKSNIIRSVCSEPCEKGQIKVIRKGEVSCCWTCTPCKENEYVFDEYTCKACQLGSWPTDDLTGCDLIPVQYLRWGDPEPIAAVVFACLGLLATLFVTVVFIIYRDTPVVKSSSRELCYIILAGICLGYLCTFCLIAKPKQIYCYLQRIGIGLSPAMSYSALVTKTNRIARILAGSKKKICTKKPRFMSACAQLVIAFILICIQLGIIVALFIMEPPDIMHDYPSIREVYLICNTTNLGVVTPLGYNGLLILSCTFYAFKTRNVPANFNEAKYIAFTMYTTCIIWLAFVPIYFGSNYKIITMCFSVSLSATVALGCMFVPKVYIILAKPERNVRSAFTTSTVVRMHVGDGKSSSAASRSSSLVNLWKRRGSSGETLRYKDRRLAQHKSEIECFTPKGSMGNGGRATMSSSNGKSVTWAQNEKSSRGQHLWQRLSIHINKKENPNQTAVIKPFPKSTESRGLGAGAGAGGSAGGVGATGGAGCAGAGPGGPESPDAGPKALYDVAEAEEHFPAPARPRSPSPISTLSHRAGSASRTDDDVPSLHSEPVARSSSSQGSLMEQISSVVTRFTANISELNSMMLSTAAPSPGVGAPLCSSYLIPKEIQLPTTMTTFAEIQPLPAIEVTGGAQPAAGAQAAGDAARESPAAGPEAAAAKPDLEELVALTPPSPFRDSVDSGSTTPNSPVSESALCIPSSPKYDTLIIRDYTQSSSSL
SMILES,EC50 (mGluR5 [1]) [nM],Fold shift at 1 μM (mGluR5 [2]),Fold shift at 10 μM (mGluR5 [2])
"O=c1c2ccc(C#Cc3ccccn3)cc2nc2n1CC(C(F)(F)F)C2 (single isomer, unassigned) [Example 1.8a]",10 to 30,+++ (+++>3),
"O=c1c2ccc(C#Cc3ccccn3)cc2nc2n1CC(C(F)(F)F)C2 (single isomer, unassigned) [Example 1.8b]",30 to 100,+ (+ is between 1.5 and 1.9),
"CC1CCn2c(nc3cc(C#Cc4ccccn4)ccc3c2=O)C1 (single isomer, unassigned) [Example 2.1b]",,++ (++ is between 2.0 and 2.9),
"COC1(C)CCc2nc3cc(C#Cc4ccccn4)ccc3c(=O)n2C1 (single isomer, unassigned) [Example 2.8a]",100 to 300,,++ (++ is between 2.0 and 2.9)
"COC1(C)CCc2nc3cc(C#Cc4ccccn4)ccc3c(=O)n2C1 (single isomer, unassigned) [Example 2.8b]",30 to 100,+++ (+++>3),
"O=c1c2ccc(C#Cc3ccccn3)cc2nc2n1C1CCC2C1 (single isomer, unassigned) [Example 2.9a]",10 to 30,+ (+ is between 1.5 and 1.9),
"O=c1c2ccc(C#Cc3ccccn3)cc2nc2n1C1CCC2C1 (single isomer, unassigned) [Example 2.9b]",,++ (++ is between 2.0 and 2.9),
"O=c1c2ccc(C#Cc3ccccn3)cc2nc2n1CCC1CC21 (single isomer, unassigned) [Example 2.10a]",30 to 100,++ (++ is between 2.0 and 2.9),
"CC1(C)CC(F)c2nc3cc(C#Cc4ccccn4)ccc3c(=O)n2C1 (single isomer, unassigned) [Example 2.12a]",< 10,,+++ (+++>3)
"CC1(C)CC(F)c2nc3cc(C#Cc4ccccn4)ccc3c(=O)n2C1 (single isomer, unassigned) [Example 2.12b]",,,+ (+ is between 1.5 and 1.9)
"COC1(C)CCc2nc3cc(C#Cc4ccccn4)ccc3c(=O)n2CC1 (single isomer, unassigned) [Example 3.4a]",30 to 100,,+++ (+++>3)
"COC1(C)CCc2nc3cc(C#Cc4ccccn4)ccc3c(=O)n2CC1 (single isomer, unassigned) [Example 3.4b]",,,++ (++ is between 2.0 and 2.9)
"CC1(F)CCc2nc3cc(C#Cc4ccccn4)cnc3c(=O)n2CC1 (single isomer, unassigned) [Example 3.10b]",30 to 100,+++ (+++>3),
"COC1CCc2nc3cc(C#Cc4ccccn4)ccc3c(=O)n2CC1 (single isomer, unassigned) [Example 3.11b]",10 to 30,++ (++ is between 2.0 and 2.9),
"CC1CCc2cc3cc(C#Cc4ccccn4)ccc3c(=O)n2CC1 (single isomer, unassigned) [Example 3.20a]",< 10,,+++ (+++>3)
"CC1Cc2nc3cc(C#Cc4ccccn4)ccc3c(=O)n2CCC1(F)F (single isomer, unassigned) [Example 3.30c]",10 to 30,,+++ (+++>3)
"CC1Cc2nc3cc(C#Cc4ccccn4)ccc3c(=O)n2CCC1(F)F (single isomer, unassigned) [Example 3.30d]",,,+ (+ is between 1.5 and 1.9)
"CC1Cn2c(nc3cc(C#Cc4ccccn4)ccc3c2=O)CCC1(F)F (single isomer, unassigned) [Example 3.30f]",10 to 30,,++ (++ is between 2.0 and 2.9)
"CC1(C)CCc2nc3c(F)c(C#Cc4ccccn4)ccc3c(=O)n2C1 [Example 2.30b, 4-fluoro-8,8-dimethyl-3-(pyridin-2-ylethynyl)-8,9-dihydro-6H-pyrido[2,1-b]quinazolin-11(7H)-one]",10 to 30,+++ (+++>3),

# Next, values leading:
EC50 (mGluR5 [1]) [nM],Fold shift at 1 μM (mGluR5 [2]),Fold shift at 10 μM (mGluR5 [2]),SMILES
10 to 30,+++ (+++>3),,"COC(C)(C)C1Cc2nc3cc(C#Cc4ccccn4)ccc3c(=O)n2C1 (centres unmarked) [Example 1.4, 2-(2-methoxypropan-2-yl)-6-(pyridin-2-ylethynyl)-2,3-dihydropyrrolo[2,1-b]quinazolin-9(1H)-one]"
10 to 30,+++ (+++>3),,"O=c1c2ccc(C#Cc3ccccn3)cc2nc2n1CC1(CCC1)C2 [Example 1.7, 6′-(pyridin-2-ylethynyl)-1′H-spiro[cyclobutane-1,2′-pyrrolo[2,1-b]quinazolin]-9′(3′H)-one]"
10 to 30,+++ (+++>3),,"CCC1(C)Cc2nc3cc(C#Cc4ccccn4)ccc3c(=O)n2C1 (centres unmarked) [Example 1.10, 2-ethyl-2-methyl-6-(pyridin-2-ylethynyl)-2,3-dihydropyrrolo[2,1-b]quinazolin-9(1H)-one]"
30 to 100,+ (+ is between 1.5 and 1.9),,"CC1(C)Cc2nc3cc(C#Cc4ccccn4)ccc3c(=O)n2O1 [Example 1.15, 2,2-dimethyl-6-(pyridin-2-ylethynyl)-2H-isoxazolo[3,2-b]quinazolin-9(3H)-one]"
30 to 100,++ (++ is between 2.0 and 2.9),,"CCC1(C)Cc2nc3cc(C#Cc4ccccn4)cnc3c(=O)n2C1 (centres unmarked) [Example 1.19, 7-ethyl-7-methyl-3-(pyridin-2-ylethynyl)-7,8-dihydropyrido[3,2-d]pyrrolo[1,2-a]pyrimidin-10(6H)-one]"
10 to 30,+++ (+++>3),,"CC1(C)COc2nc3cc(C#Cc4ccccn4)ccc3c(=O)n2C1 [Example 2.29, 3,3-dimethyl-9-(pyridin-2-ylethynyl)-3,4-dihydro-[1,3]oxazino[2,3-b]quinazolin-6(2H)-one]"
30 to 100,,,"CC1(C)CCc2nc3cc(OCc4ccccn4)ccc3c(=O)n2C1 [Example 4.5, 8,8-dimethyl-3-(pyridin-2-ylmethoxy)-8,9-dihydro-6H-pyrido[2,1-b]quinazolin-11(7H)-one]"
100 to 300,,,"CC1(C)CCc2nc3cc(NC(=O)c4ccccn4)ccc3c(=O)n2C1 [Example 4.7, N-(8,8-dimethyl-11-oxo-7,8,9,11-tetrahydro-6H-pyrido[2,1-b]quinazolin-3-yl)picolinamide]"
100 to 300,,,"CC1(C)CCc2nc3cc(C(=O)Nc4ccccn4)ccc3c(=O)n2C1 [Example 4.8, 8,8-dimethyl-11-oxo-N-(pyridin-2-yl)-7,8,9,11-tetrahydro-6H-pyrido[2,1-b]quinazoline-3-carboxamide]"
300 to 1000,,,"CC1(C)Cc2nc3cc(C(=O)Nc4ccccn4)ccc3c(=O)n2C1 [Example 4.17, 2,2-dimethyl-9-oxo-N-(pyridin-2-yl)-1,2,3,9-tetrahydropyrrolo[2,1-b]quinazoline-6-carboxamide]"
300 to 1000,,,"CC1(C)Cc2nc3cc(NC(=O)c4ccccn4)ccc3c(=O)n2C1 [Example 4.18, N-(2,2-dimethyl-9-oxo-1,2,3,9-tetrahydropyrrolo[2,1-b]quinazolin-6-yl)picolinamide]"
300 to 1000,,,"O=C(Nc1ccccn1)c1ccc2c(=O)n3c(nc2c1)CCC(F)(F)CC3 [Example 5.4, 8,8-difluoro-12-oxo-N-(pyridin-2-yl)-6,7,8,9,10,12-hexahydroazepino[2,1-b]quinazoline-3-carboxamide]"
300 to 1000,,,"CC1(C)CCc2nc3cc(Nc4ccccn4)ccc3c(=O)n2C1 [Example 6.2, 8,8-dimethyl-3-(pyridin-2-ylamino)-8,9-dihydro-6H-pyrido[2,1-b]quinazolin-11(7H)-one]"
100 to 300,,,"CC1(C)CCc2nc3cc(COc4ccccn4)ccc3c(=O)n2C1 [Example 6.4, 8,8-dimethyl-3-((pyridin-2-yloxy)methyl)-8,9-dihydro-6H-pyrido[2,1-b]quinazolin-11(7H)-one]"
100 to 300,,,"C/C(=C\c1ccc2c(=O)n3c(nc2c1)CCC(C)(C)C3)c1ccccn1 [Example 6.5, (E)-8,8-dimethyl-3-(2-(pyridin-2-yl)prop-1-en-1-yl)-8,9-dihydro-6H-pyrido[2,1-b]quinazolin-11(7H)-one]"
30 to 100,,,"CC1(C)CCc2nc3cc(C(=O)Cc4ccccn4)ccc3c(=O)n2C1 [Example 6.7, 8,8-dimethyl-3-(2-(pyridin-2-yl)acetyl)-8,9-dihydro-6H-pyrido[2,1-b]quinazolin-11(7H)-one]"
300 to 1000,,,"CC1(C)CCc2nc3cc(NC(=O)Nc4ccccn4)ccc3c(=O)n2C1 [Example 6.12, 1-(8,8-dimethyl-11-oxo-7,8,9,11-tetrahydro-6H-pyrido[2,1-b]quinazolin-3-yl)-3-(pyridin-2-yl)urea]"
300 to 1000,,,"CC1(C)CCc2nc3cc(-c4nc(-c5ccccn5)c[nH]4)ccc3c(=O)n2C1 [Example 6.21, 8,8-dimethyl-3-(4-(pyridin-2-yl)-1H-imidazol-2-yl)-8,9-dihydro-6H-pyrido[2,1-b]quinazolin-11(7H)-one]"
100 to 300,,,"CC1(C)CCc2nc3cc(-c4ncc(-c5ccccn5)o4)ccc3c(=O)n2C1 [Example 6.25, 8,8-dimethyl-3-(5-(pyridin-2-yl)oxazol-2-yl)-8,9-dihydro-6H-pyrido[2,1-b]quinazolin-11(7H)-one]"
300 to 1000,,,"CC1(C)CCc2nc3cc(-c4cnc(-c5ccccn5)s4)ccc3c(=O)n2C1 [Example 6.28, 8,8-dimethyl-3-(2-(pyridin-2-yl)thiazol-5-yl)-8,9-dihydro-6H-pyrido[2,1-b]quinazolin-11(7H)-one]"
100 to 300,,,"CC1(C)CCc2nc3cc(-c4nnc(-c5ccccn5)o4)ccc3c(=O)n2C1 [Example 6.35, 8,8-dimethyl-3-(5-(pyridin-2-yl)-1,3,4-oxadiazol-2-yl)-8,9-dihydro-6H-pyrido[2,1-b]quinazolin-11(7H)-one]"
100 to 300,,,"CC1(C)CCc2nc3cc(-c4nnc(-c5ccccn5)s4)ccc3c(=O)n2C1 [Example 6.38, 8,8-dimethyl-3-(5-(pyridin-2-yl)-1,3,4-thiadiazol-2-yl)-8,9-dihydro-6H-pyrido[2,1-b]quinazolin-11(7H)-one]"
300 to 1000,,,"CC1(C)CCc2nc3cc(-c4ncc(-c5ccccn5)cn4)ccc3c(=O)n2C1 [Example 6.42, 8,8-dimethyl-3-(5-(pyridin-2-yl)pyrimidin-2-yl)-8,9-dihydro-6H-pyrido[2,1-b]quinazolin-11(7H)-one]"
